Laboratory results taken from ChEMBL document CHEMBL1201862, “PubChem BioAssay data set” (2004).
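Assay format: 96-well plates, 48-hour exposure. GI50: concentration for 50% inhibition of growth.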 Active and inactive are the calls of the source. Rule as the data show it: active = GI50 up to about 1.1 µM and inactive = higher.

Experiments:
Assay in all cases: NCI tumour cell line growth inhibition, 48 h
UACC-257 = test system: UACC-257
OVCAR-4 = test system: OVCAR-4
M14 = test system: M14
RXF 393 = test system: RXF 393
MDA-MB-231 = test system: MDA-MB-231
U-251 = test system: U-251
Hs-578T = test system: Hs-578T
MOLT-4 = test system: MOLT-4
T47D = test system: T47D
DU-145 = test system: DU-145
SK-MEL-5 = test system: SK-MEL-5
KM12 = test system: KM12
HCT-116 = test system: HCT-116
HOP-62 = test system: HOP-62
BT-549 = test system: BT-549
SNB-19 = test system: SNB-19
HL-60 = test system: HL-60
NCI-H460 = test system: NCI-H460
Malme-3M = test system: Malme-3M
HT-29 = test system: HT-29
HOP-92 = test system: HOP-92
RPMI-8226 = test system: RPMI-8226
HCT-15 = test system: HCT-15
NCI/ADR-RES = test system: NCI/ADR-RES
SNB-75 = test system: SNB-75
OVCAR-5 = test system: OVCAR-5
IGROV-1 = test system: IGROV-1
NCI-H522 = test system: NCI-H522
SK-OV-3 = test system: SK-OV-3
SF-295 = test system: SF-295
SF-539 = test system: SF-539
TK-10 = test system: TK-10
A498 = test system: A498
ACHN = test system: ACHN
MDA-N = test system: MDA-N
786-0 = test system: 786-0
UO-31 = test system: UO-31
HCC 2998 = test system: HCC 2998
OVCAR-3 = test system: OVCAR-3
A549 = test system: A549
MCF7 = test system: MCF7
EKVX = test system: EKVX
SN12C = test system: SN12C
SW-620 = test system: SW-620
CAKI-1 = test system: CAKI-1
K562 = test system: K562
NCI-H23 = test system: NCI-H23
SF-268 = test system: SF-268
MDA-MB-435 = test system: MDA-MB-435
NCI-H226 = test system: NCI-H226
OVCAR-8 = test system: OVCAR-8
COLO 205 = test system: COLO 205
CCRF-CEM = test system: CCRF-CEM
PC-3 = test system: PC-3
UACC-62 = test system: UACC-62
SR = test system: SR
SK-MEL-28 = test system: SK-MEL-28
LOX IMVI = test system: LOX IMVI
SK-MEL-2 = test system: SK-MEL-2

CCOC(=O)C(NC(=O)c1ccccc1)(N1CCN(c2cc3c(cc2F)c(=O)c(C(=O)O)cn3CC)CC1)C(F)(F)F (centres undefined)
GI50 (UACC-257): 12.9 µM (inactive) | GI50 (OVCAR-4): 33.1 µM (inactive) | GI50 (M14): 51.1 µM (inactive) | GI50 (RXF 393): 33.8 µM (inactive) | GI50 (MDA-MB-231): 23.6 µM (inactive) | GI50 (U-251): 41.2 µM (inactive) | GI50 (Hs-578T): 43.3 µM (inactive) | GI50 (MOLT-4): 21.5 µM (inactive) | GI50 (T47D): 23.9 µM (inactive) | GI50 (DU-145): 59.3 µM (inactive) | GI50 (SK-MEL-5): 22.9 µM (inactive) | GI50 (KM12): 25.9 µM (inactive) | GI50 (HCT-116): 33.9 µM (inactive) | GI50 (HOP-62): 31.2 µM (inactive) | GI50 (BT-549): 35.9 µM (inactive) | GI50 (SNB-19): 29.9 µM (inactive) | GI50 (HL-60): 20 µM (inactive) | GI50 (NCI-H460): 32.1 µM (inactive) | GI50 (Malme-3M): 22 µM (inactive) | GI50 (HT-29): 29 µM (inactive) | GI50 (HOP-92): 28.8 µM (inactive) | GI50 (RPMI-8226): 25.2 µM (inactive) | GI50 (HCT-15): 24.4 µM | GI50 (NCI/ADR-RES): 41.4 µM (inactive) | GI50 (SNB-75): 26.1 µM (inactive) | GI50 (OVCAR-5): 21.1 µM (inactive) | GI50 (IGROV-1): 38.4 µM (inactive) | GI50 (NCI-H522): 16.7 µM (inactive) | GI50 (SK-OV-3): 34.3 µM (inactive) | GI50 (SF-295): 37.5 µM (inactive) | GI50 (SF-539): 26.5 µM (inactive) | GI50 (TK-10): 29.4 µM (inactive) | GI50 (A498): 24.5 µM (inactive) | GI50 (ACHN): 33.1 µM (inactive) | GI50 (MDA-N): 37.7 µM (inactive) | GI50 (786-0): 39.7 µM (inactive) | GI50 (UO-31): 31.3 µM (inactive) | GI50 (HCC 2998): 52.2 µM (inactive) | GI50 (OVCAR-3): 31.3 µM (inactive) | GI50 (A549): 39.9 µM (inactive) | GI50 (MCF7): 26.6 µM (inactive) | GI50 (EKVX): 17.1 µM (inactive) | GI50 (SN12C): 32.9 µM (inactive) | GI50 (SW-620): 47.6 µM (inactive) | GI50 (CAKI-1): 21.4 µM (inactive) | GI50 (K562): 31.8 µM (inactive) | GI50 (NCI-H23): 32.4 µM (inactive) | GI50 (SF-268): 40.9 µM (inactive) | GI50 (MDA-MB-435): 29.2 µM (inactive) | GI50 (NCI-H226): 29.2 µM (inactive) | GI50 (OVCAR-8): 19.2 µM (inactive) | GI50 (COLO 205): 17.1 µM (inactive) | GI50 (CCRF-CEM): 21.8 µM (inactive) | GI50 (PC-3): 31.3 µM (inactive) | GI50 (UACC-62): 29.6 µM (inactive) | GI50 (SR): 27.2 µM (inactive) | GI50 (SK-MEL-28): < 0.01 µM (active) | GI50 (LOX IMVI): 15.6 µM (inactive) | GI50 (SK-MEL-2): 31.5 µM (inactive)
